Assays:
Cochliobolus miyabeanus = experiment: Activity against brown spot of rice caused by Cochliobolus miyabeanus, protective application; type: in vivo; settings: rice seedlings "Tai-Nong 67", six days after inoculation
Procedure: (§1) The active compounds, separately or jointly, were prepared as a stock solution comprising 0.25% by weight of active compound in acetone or DMSO. 1% by weight of the emulsifier Uniperol® EL (wetting agent having emulsifying and dispersant action based on ethoxylated alkylphenols) was added to this solution, and the mixture was diluted with water to the desired concentration.
Use Example 1—Activity Against Brown Spot of Rice Caused by Cochliobolus miyabeanus, Protective Application Leaves of potted rice seedlings of the cultivar “Tai-Nong 67” were sprayed to runoff point with an aqueous suspension of the concentration of active compound stated below. The next day, the plants were inoculated with an aqueous spore suspension of Cochliobolus miyabeanus. The test plants were then placed in climatized chambers at 22-24° C. and 95-99% relative atmospheric humidity for six days. The extent of the development of the infection on the leaves was then determined visually.
Evaluation was carried out by determining the percentage of infected leaf area. These percentages were converted into efficacies.
The efficacy (E) is calculated as follows using Abbot's formula: E=(1−α/β)·100 α corresponds to the fungicidal infection of the treated plants in % and β corresponds to the fungicidal infection of the untreated (control) plants in % An efficacy of 0 means that the infection level of the treated plants corresponds to that of the untreated control plants; an efficacy of 100 means that the treated plants are not infected.
The expected efficacies of mixtures of active compounds are determined using Colby's formula (R. S. Colby, Weeds, 15, 20-22, 1967) and compared with the observed efficacies.
Colby's formula: E=x+y−x·y/100 • E expected efficacy, expressed in % of the untreated control, when using the mixture of the active compounds A and B at the concentrations a and b • x efficacy, expressed in % of the untreated control, when using the active compound A at the concentration a y efficacy, expressed in % of the untreated control, when using the active compound B at the concentration b

Corticium sasakii = experiment: Activity against sheath blight on rice caused by Corticium sasakii; type: in vivo; settings: rice plants "Tai-Nong 67", after 11 days
Procedure: as §1
Use Example 2—Activity Against Sheath Blight on Rice Caused by Corticium sasakii
Pots with rice plants of the cultivar “Tai-Nong 67”, were sprayed to runoff point with an aqueous suspension having the concentration of active compounds stated below. The next day, oat grains infected with Corticium sasakii were placed into the pots (in each case 5 grains per pot). The plants were then placed in a chamber at 26° C. and maximum atmospheric humidity. After 11 days, the sheath blight on the untreated but infected control plants had developed to such an extent that the infection could be determined visually in %.
Evaluation was carried out analogously to Example 1.

| Structure (SMILES) | Efficacy in % of the untreated control (Cochliobolus miyabeanus; 4 ppm in the spray liquor) [%] | Efficacy in % of the untreated control (Corticium sasakii; 4 ppm in the spray liquor) [%] | Efficacy in % of the untreated control (Cochliobolus miyabeanus; 1 ppm in the spray liquor) [%] | Efficacy in % of the untreated control (Corticium sasakii; 1 ppm in the spray liquor) [%] |
| --- | --- | --- | --- | --- |
| CC1CCN(c2c(-c3c(F)cc(F)cc3F)c(Cl)nc3ncnn23)CC1 [I, 5-chloro-7-(4-methylpiperidin-1-yl)-6-(2,4,6-trifluorophenyl)-[1,2,4]triazolo[1,5-a]pyrimidine] | 33 | 37 |  |  |
| N#Cc1c[nH]cc1-c1cccc2c1OC(F)(F)O2 [II (fludioxonil), 4-(2,2-difluorobenzo[1,3]dioxol-4-yl)-1H-pyrrole-3-carbonitrile] | 33 | 6 | 0 | 0 |
